What was measured:
[1] = tested on: NHDF cells; experiment: Amount of intracellular reactive oxygen species (ROS), CM-H2DCFDA; format: cell-based, human; details: 50 μM, precultured 24 hours, UV-B 25 mJ/cm2, 1 hour, control 1%, UV-B alone about 1.7%
Source text: In the studies of “Antioxidative effect”, it was confirmed that 4G3HBE and 4GBE had approximately half of the antioxidation activity of vitamin C. On the other hand, according to “Inhibition of MMP-1 expression” and “Activation of signaling molecules”, it was thought that attenuation of the oxidative stress signal was induced by removal of ROS, generated by UV-B irradiation, by the antioxidation ability of 4G3HBE and 4GBE. Thus, the amount of the intracellular reactive oxygen species (ROS) was measured using CM-H2DCFDA, an indicator of ROS.
The NHDF cells (1.0×10^5 cells/mL) were cultured to a confluent state. Subsequently, 4G3HBE and 4GBE were each added to the cells at a final concentration of 50 μM, followed by preculturing for 24 hours. CM-H2DCFDA serving as a cell-permeable indicator of reactive oxygen was added to the cells at a final concentration of 10 μM one hour before ultraviolet ray irradiation. Subsequently, the cells were irradiated with UV-B with a light intensity of 25 mJ/cm^2 and further cultured for 1 hour in an incubator. Then, fluorescence was measured with an excitation wavelength of 495 nm and a fluorescent wavelength of 530 nm using a multimode microplate reader, Varioscan LUX. […]

[2] = tested on: p38MAP kinase; experiment: Activation (phosphorylation) of signaling molecule after UV-B irradiation, western blotting; format: cell-based, human; details: NHDF cells, precultured 24 hours, UV-B 25 mJ/cm2
Protocol: (§1) Since activation of p38MAP kinase, SAPK/JNK, and NF-κB involving in an inflammatory response is deeply involved in the induction and production of MMPs after UV-B irradiation, activation (via phosphorylation) of these signaling molecules was studied by the western blotting method.
(§2) More specifically, the NHDF cells were precultured for 24 hours in the same manner as described above, rinsed with PBS twice, irradiated with UV-B with a light intensity of 25 mJ/cm^2, and subjected to western blotting to examine phosphorylation of p38MAP, SAPK/JNK, and NF-κB.
(§3) The data were shown by average±standard error (n=3). The comparison between multiple groups was performed by using the Tukey-Kramer test method (p<0.05).
(§4) Referring to FIG. 4(b), the horizontal axis of the graph indicates conditions of the samples, that is, the presence/absence of UV-B irradiation (“+”: irradiated with UV, “−”: not irradiated), the presence/absence of 4G3HBE (“+”: presence, “−”: absence), and the presence/absence of 4GBE (“+”: presence, “−”: absence). Further, the vertical axis indicates changes in phosphorylation, that is, a relative ratio of phosphorylation activity. Referring to FIG. 4(b), p38MAP, SAPK/JNK, and phosphorylated NF-κB increased by UV-B irradiation. However, the expression of the signaling molecules was suppressed by the presence of 4G3HBE or 4GBE.

[3] = tested on: SAPK/JNK; experiment: as above; format: cell-based, human; details: NHDF cells, precultured 24 hours, UV-B 25 mJ/cm2
Protocol: as §1, §2, §3, §4

[4] = tested on: NF-κB; experiment: as above; format: cell-based, human; details: NHDF cells, precultured 24 hours, UV-B 25 mJ/cm2
Protocol: as §1, §2, §3, §4

[5] = tested on: MMP-1; experiment: Inhibition of MMP-1 protein expression after UV-B irradiation, western blotting; format: cell-based, human; details: NHDF cells, 50 or 100 μM, precultured 24 hours, UV-B 25 mJ/cm2, 24 hours after irradiation
Protocol: Normal human dermal fibroblasts-Neo (NHDF, hereinafter, simply referred to as “NHDF cells”) were adjusted at 1×10^5 cells/mL and inoculated in a 12-well multi-well plate in a volume of 1 mL each and cultured to a confluent state. Subsequently, test samples (a final concentration of 50 or 100 μM (of each solvent-fractionated matter) (of each isolated substance)) were added to the cells and the cells were precultured for 24 hours. Subsequently, after rinsing with PBS twice, the cells were irradiated with UV-B with a light intensity of 25 mJ/cm^2.
The cells irradiated with ultraviolet rays were subjected to SDS-PAGE after 24 hours, and then western blotting was performed by transferring to PVDF (polyvinylidene difluoride), thereby detecting protein expression of MMP-1.
Referring to FIG. 3(a), in two columns in an upper part of the photograph, an upper column indicates the presence/absence of UV irradiation (“+”: irradiated with UV, “−”: not irradiated) and a lower column indicates samples (no sample indicated by “−”, 4G3HBE, and 4GBE). Further, a left part of the photograph indicates detection targets (MMP-1 and β-Actin) along a vertical direction. β-Actin is measured as a control.

[6] = DPPH radical scavenging rate (antioxidative effect); format: biochemical; details: 200 μM DPPH, 30 minutes, absorbance at 520 nm; compared with L-ascorbic acid
Protocol: In order to evaluate the antioxidation ability of the two novel compounds thus isolated, 200 μM DPPH (1,1-diphenyl-2-picrylhydrazyl) dissolved in 50% ethanol was prepared as a reagent. In the preparation procedure of the reagent, DPPH was first dissolved in ethanol, and an equal amount of Milli-Q water was then added to the mixture. Then, the resulting mixture was filtered with a 0.45 μm syringe filter to remove undissolved matters.
A sample solution in a volume of 150 μL and the 200 μM DPPH ethanol solution in a volume of 150 μL were mixed well in a 96-well plate. After the plate was left standing still for 30 minutes, the absorbance at 520 nm was measured using a microplate reader (Thermo Fisher Scientific, Multiscan-LUX). The radical scavenging rate was obtained using the formula (F1).
Note that in the formula, RD (%) represents the radical scavenging rate (%). ODblank520nm represents the absorbance at 520 nm of the reagent (DPPH) to which each of the sample solutions is not added, while ODsample520nm represents the absorbance at 520 nm of the reagent (DPPH) to which each of the sample solutions is added and mixed, followed by being left standing still for 30 minutes.
FIG. 2 is a graph of the result with a photograph of a state of the microplate. […]

| Compound | intracellular ROS level [1] | activation of p38MAP kinase (phosphorylation) [2] | activation of SAPK/JNK (phosphorylation) [3] | activation of NF-κB (phosphorylation) [4] | expression of MMP-1 (protein, detection intensity) [5] | antioxidative activity (radical scavenging rate) relative to vitamin C [6] |
| --- | --- | --- | --- | --- | --- | --- |
| CC(C)(O)C(OC(=O)/C=C/c1ccc(O)c(O)c1)C(=O)OCc1ccc(O[C@@H]2O[C@H](CO)[C@@H](O)[C@H](O)[C@H]2O)c(O)c1 (stereo partly drawn) [4G3HBE, 2-caffeoyl-3-hydroxy-3-methylbutyric 4′-β-D-glucopyranosyloxy-3′-hydroxybenzyl ester] | about 1.4% | significantly down-regulated | significantly down-regulated | significantly down-regulated | clearly suppressed the expression of MMP-1 | approximately half that of vitamin C |
| CC(C)(O)C(OC(=O)/C=C/c1ccc(O)c(O)c1)C(=O)OCc1ccc(O[C@@H]2O[C@H](CO)[C@@H](O)[C@H](O)[C@H]2O)cc1 (stereo partly drawn) [4GBE, 2-caffeoyl-3-hydroxy-3-methylbutyric 4′-β-D-glucopyranosyloxybenzyl ester] | about 1.4% | significantly down-regulated | significantly down-regulated | significantly down-regulated | clearly suppressed the expression of MMP-1 | approximately half that of vitamin C |

Source: patent US20220298196A1, “NOVEL COMPOUND DERIVED FROM WATERMELON, AND COMPOSITION USING SAME” (HAGIHARA FARM PRODUCTION INSTITUTE CO., LTD., priority 2019, published 2022)
